Test results as given in article PMC10488149 (International Journal of Molecular Sciences, 2023).

What was measured:
[1] = biological target: T1, α1-acid glycoprotein (AGP) (Homo sapiens, UniProt P02763); test: Fluorescence titration
Text: Fluorescence spectra were collected using an emission detector module of the ChirascanPlus spectropolarimeter (APL), fixing the PMU of the detector at 600 mV. For every measurement, a 1 cm quartz cell, which is suitable for CD and fluorescence, was used. Experimental details: 1 cm cell pathlength, 500–310 nm emission scan, λexc 305 nm, and 5 nm excitation bandwidth.

[2] = biological target: T1, α1-acid glycoprotein (AGP); type: binding
Method: (§1) The Hill fitting was performed with OriginLab.
(§2) The evaluation of molar enthalpies (ΔHm) and entropies (ΔSm) at the melting temperature for the melting process was calculated assuming a two-state native-to-unfolded model. The molar ratios at different temperatures were determined using the linear extrapolations of plateau at T >> Tm and T << Tm for the Boltzmann fitting curves, assuming that only denatured protein was present at T >> Tm and only native at T << Tm. The reversibility was assumed to be around Tm ± 5 °C, and the relative molar ratios for native and denatured species was used to determine the equilibrium constants and the associated Gibbs free energy (ΔGm, from ΔGm = −RT·lnK). Following the given relationship, ΔGm was supposed to be ~0 at the Tm (K^(Tm) ~ 1). ΔHm and ΔSm were calculated at Tm by interpolating with a linear model the ±5 °C region of the ΔGm vs. T curve around Tm, assuming the intercept corresponding to ΔHm, previous correction from °C to Kelvin, and the slope to −ΔSm, assuming a y = a − bx model, where ΔGm^(Tm) = ΔHm^(Tm) − TmΔSm^(Tm) at ΔGm^(Tm) = 0.
(§3) For the thermal denaturations, Boltzmann fitting with the equation y = y0 + A * (frac/(1 + exp ((x − x01)/k1)) + (1 − frac)/(1 + exp((x − x02)/k2))) was used. The SRCD spectra as a function of temperature were recorded with B23 module B with synchrotron operation at 300 or 350 mA, using rotating cell for thermal denaturation with 0.02 cm cell pathlength, 0.5 mm slit, 1 sec integration time, and 1 nm increment in the 260–180 nm spectral region.

[3] = biological target: T1, α1-acid glycoprotein (AGP); test: in vitro; details: isolated α1-acid glycoprotein (AGP) in solution
Method: SRCD single-spectra and UV denaturation experiments were recorded on the module B unit at B23 (Diamond Light Source, Didcot, UK) using a 6-cell sample turret. The following are the experimental parameters for UV denaturation: 30 scans, 260–180 nm range, 0.5 mm slit, 1 s integration time, 1 nm increment. The thermal denaturation experiments were performed with an Applied Photophysics (APL) ChirascanPlus spectropolarimeter. […] The baseline of water or buffer was subtracted from the CD spectra of proteins with or without ligands. Far-UV (180–250 nm) denaturation SRCD measurements were collected in 0.02 cm rotating cells with a 70 μL volume. Thermal denaturations were recorded with both B23 beamline and ChirascanPlus (APL, Leatherhead, UK). For CD titration, the protocol used was to measure the CD spectrum of each protein–ligand mixture at various ligand molar ratios by adding a small aliquot of ligand (few microliters of an appropriate concentration of ligand stock solution) to the protein in the cuvette cell. […] The same method was used for the titration via fluorescence spectroscopy.
The CD spectra were processed using CD Apps [27] and OriginPro. […] The evaluated parameters of melting temperature (Tm) were reported in °C and half-live (t1/2) for photo degradation in s (y = A1exp (−x/t1) + y0, t1/2 = t1log2). […]

[4] = biological target: T2, human serum albumin (HSA) (Homo sapiens, UniProt P02768); test: Thermal denaturation followed by CD at 191 nm; type: binding; details: HSA with ligand
T2 construct: purchased Sigma A3782
T2 sequence (P02768 25-609): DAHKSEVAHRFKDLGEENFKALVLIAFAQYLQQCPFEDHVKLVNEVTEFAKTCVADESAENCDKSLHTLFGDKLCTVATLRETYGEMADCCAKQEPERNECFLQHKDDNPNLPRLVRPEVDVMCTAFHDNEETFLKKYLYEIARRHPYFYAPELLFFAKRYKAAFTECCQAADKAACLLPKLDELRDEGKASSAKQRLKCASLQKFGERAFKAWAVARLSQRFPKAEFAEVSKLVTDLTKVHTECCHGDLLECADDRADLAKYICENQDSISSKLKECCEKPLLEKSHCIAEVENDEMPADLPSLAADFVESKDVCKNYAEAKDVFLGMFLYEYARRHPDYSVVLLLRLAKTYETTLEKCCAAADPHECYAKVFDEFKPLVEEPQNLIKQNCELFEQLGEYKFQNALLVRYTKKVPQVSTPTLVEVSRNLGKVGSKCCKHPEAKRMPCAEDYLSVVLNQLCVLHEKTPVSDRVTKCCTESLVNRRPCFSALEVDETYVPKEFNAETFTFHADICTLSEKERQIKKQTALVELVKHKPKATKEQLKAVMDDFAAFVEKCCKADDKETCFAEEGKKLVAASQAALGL
Method: as §1, §2, §3

T1 sequence (P02763 19-201): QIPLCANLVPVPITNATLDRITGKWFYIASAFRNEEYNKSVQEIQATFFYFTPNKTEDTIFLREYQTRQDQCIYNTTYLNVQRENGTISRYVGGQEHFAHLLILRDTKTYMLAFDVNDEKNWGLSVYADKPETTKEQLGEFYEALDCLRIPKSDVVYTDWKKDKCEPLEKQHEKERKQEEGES

SMILES | Kd ([1]; isolated α1-acid glycoprotein (AGP) in solution) | Tm (°C) [B] [2] | ΔHm, Tm ([2]; AGP with ligand, linear fitting around Tm, AGP alone 127.8) | ΔSm, Tm ([2]; AGP with ligand, linear fitting around Tm, AGP alone 392.1) | Kd [3] | Tm (°C) [A] ([4]; Boltzmann fitting of experimental data, 191 nm, HSA alone 74.1) | Tm (°C) [B] ([4]; T at which ΔGm,Tm = 0, 191 nm, HSA alone 67.3) | ΔHm, Tm ([4]; linear fitting around Tm, HSA alone 85.8) | ΔSm, Tm ([4]; linear fitting around Tm, HSA alone 252.3) | Kd [1]
Cc1c(N)nc([C@H](CC(N)=O)NC[C@H](N)C(N)=O)nc1C(=O)N[C@H](C(=O)N[C@H](C)[C@@H](O)[C@H](C)C(=O)N[C@H](C(=O)NCCc1nc(-c2nc(C(=O)NCCCCNC(=N)N)cs2)cs1)[C@@H](C)O)[C@@H](O[C@@H]1O[C@@H](CO)[C@@H](O)[C@H](O)[C@@H]1O[C@H]1O[C@H](CO)[C@@H](O)[C@H](OC(N)=O)[C@@H]1O)c1c[nH]cn1 [B2, bleomycin B2] | 13.7 µM | 51.7 °C | 122.3 kJ^.mol^−1 | 376.5 J·K^−1·mol^−1 | 1.37 µM | 65.0 °C | 62.2 °C | 91.0 kJ^.mol^−1 | 271.6 J·K^−1·mol^−1 | 
Cc1c(N)nc([C@H](CC(N)=O)NC[C@H](N)C(N)=O)nc1C(=O)N[C@H](C(=O)N[C@H](C)[C@@H](O)[C@H](C)C(=O)N[C@H](C(=O)NCCc1nc(-c2nc(C(=O)NCCC[S+](C)C)cs2)cs1)[C@@H](C)O)[C@@H](O[C@@H]1O[C@@H](CO)[C@@H](O)[C@H](O)[C@@H]1O[C@H]1O[C@H](CO)[C@@H](O)[C@H](OC(N)=O)[C@@H]1O)c1c[nH]cn1 [A2, bleomycin A2] |  |  |  |  |  |  |  |  |  | 13.2 µM
